Experimental data published in PubChem BioAssay (NCI).
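Cells were grown in 96-well plates and exposed to each compound for 48 hours at five concentrations; endpoints were interpolated linearly between bracketing concentrations, or set to the highest concentration if not reached. At the GI50, growth is halved. TGI: total growth inhibition.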

Assays:
Test in all cases: NCI tumour cell line growth inhibition, 48 h
SK-MEL-2 melanoma = tested on: SK-MEL-2 melanoma
HS 578T breast = tested on: HS 578T breast
SW-620 colon = tested on: SW-620 colon
SNB-75 CNS = tested on: SNB-75 CNS
SK-OV-3 ovarian = tested on: SK-OV-3 ovarian
SF-295 CNS = tested on: SF-295 CNS
UACC-62 melanoma = tested on: UACC-62 melanoma
SK-MEL-5 melanoma = tested on: SK-MEL-5 melanoma
COLO 205 colon = tested on: COLO 205 colon
RXF 393 renal = tested on: RXF 393 renal

Row | Structure (SMILES) | TGI (SK-MEL-2 melanoma) | TGI (HS 578T breast) | TGI (SW-620 colon) | TGI (SNB-75 CNS) | TGI (SK-OV-3 ovarian) | TGI (SF-295 CNS) | TGI (UACC-62 melanoma) | TGI (SK-MEL-5 melanoma) | TGI (COLO 205 colon) | TGI (RXF 393 renal) | GI50 (SK-MEL-2 melanoma) | GI50 (HS 578T breast) | GI50 (SW-620 colon) | GI50 (SNB-75 CNS) | GI50 (SK-OV-3 ovarian) | GI50 (SF-295 CNS) | GI50 (UACC-62 melanoma) | GI50 (SK-MEL-5 melanoma) | GI50 (COLO 205 colon) | GI50 (RXF 393 renal)
1 | Clc1ccccc1C(Nc1ncccn1)Nc1ncccn1 | > 100 µM | > 100 µM | > 100 µM | > 100 µM | > 100 µM | > 100 µM | > 100 µM | > 100 µM | > 100 µM | > 100 µM |  |  |  |  |  |  |  |  |  | 
2 | COc1ccc(C(CC(=O)c2ccccc2)C(C(=O)c2ccccc2)C(c2ccc(OC)cc2)C2C(=O)NC(=S)NC2=O)cc1 (stereo not given) | 49 µM | 47.9 µM | 39.9 µM | > 100 µM | > 100 µM | 42.7 µM | 34 µM | 22.7 µM | > 100 µM | > 100 µM | 13.8 µM | 10.5 µM | 14.3 µM | 31.2 µM | > 100 µM | 11.4 µM | 13.3 µM | 10.5 µM | 8.86 µM | 18.2 µM
3 | COc1cccc2c1C(=O)OC2c1cccc2ccccc12 (stereo not given) | > 100 µM | > 100 µM | > 100 µM | 68.4 µM | > 100 µM | > 100 µM | > 100 µM | > 100 µM | > 100 µM | 98.6 µM |  |  |  |  |  |  |  |  |  | 
4 | COc1cc(NCCN=C(N)NC(N)=NC(C)C)c2ncccc2c1 | 7.36 µM | > 75.1 µM | > 100 µM | 13.8 µM | > 100 µM | > 100 µM | 94.6 µM | 11.7 µM | 7.95 µM | > 100 µM | 1.99 µM | 13 µM | 15.4 µM | 2.48 µM | 48.8 µM | > 90.9 µM | 18.9 µM | 3.4 µM | 1.7 µM | > 38.5 µM
5 | O=C(CC(=O)c1cccc(Cl)c1)c1cccc(Cl)c1 | > 100 µM | > 100 µM | > 100 µM | > 100 µM | > 100 µM | > 100 µM | > 100 µM | > 100 µM | > 100 µM | > 100 µM | 4.75 µM | 3.88 µM | 2.14 µM | 3.09 µM | 3.85 µM | 1.01 µM | 2.82 µM | 3.87 µM | 3.97 µM | 3.69 µM
6 | c1ccc([As]=[As]c2ccccc2)cc1 (stereo not given) | 3.47 µM | 10.5 µM | 2.02 µM | 2.65 µM | 3.48 µM | 5.75 µM | 2.41 µM | 3.57 µM | 2.8 µM | 2.04 µM | 1.62 µM | 1.55 µM | 0.586 µM | 0.698 µM | 1.82 µM | 2.27 µM | 1.12 µM | 1.41 µM | 1.13 µM | 0.58 µM
7 | CCOC(=O)c1ccc2c(c1)[n+](=O)c(C(C)=O)c(C(F)(F)F)n2[O-] | 5.22 µM | 3.96 µM | 3.26 µM | 3 µM | 3.34 µM | 3.01 µM | 3.46 µM | 2.84 µM | 3 µM | 5.77 µM | 1.89 µM | 1.4 µM | 1.52 µM | 1.55 µM | 1.64 µM | 1.37 µM | 1.49 µM | 1.5 µM | 1.54 µM | 2.15 µM
